Values of other authors, collected in patent US20100227030A1, “METHOD FOR THE CONSERVATION OF A PLANT MATERIAL” (priority 2007, published 2010).

Conditions: at 20° C

OC[C@H]1O[C@H](O[C@H]2O[C@H](CO)[C@@H](O)[C@H](O)[C@H]2O)[C@H](O)[C@@H](O)[C@@H]1O [trehalose]
Maximal solubility: 68.9 g/100 g water
